What was measured:
[1] = test system: cumulus enclosed oocytes (CEO); assay: Oocyte assay, cumulus enclosed oocytes (CEO): overcoming hypoxanthine maintained meiotic arrest; assay type: cell-based, mice (B6D2-F1, strain C57BL×DBA); settings: 22 hours culture, hypoxanthine 4 mM, control value in parentheses
Description: (§1) The meiosis activating activity of the […]-hydroxycholesta-8,14-diene derivatives of the invention is measured in an in vitro oocyte assay as the ability to overcome the hypoxanthine maintained meiotic arrest in denuded oocytes (DO) or cumulus enclosed oocytes (CEO). Oocytes arrested in meiosis contain diffused chromosomes which are surrounded by an intact nuclear envelope known as the germinal vesicle (GV). Upon reinitiation of meiosis by the […] gonadotropin surge, the chromosomes recondense and the GV breaks down (GVBD). In vivo, the oocyte is exposed to hypoxanthine (HX), which maintains the oocyte arrested in the meiotic prophase. This meiotic arrest can be mimicked in vitro by addition of hypoxanthine to the culture medium. The agonistic activity of the meiosis activating substances is measured as the ability to overcome the hypoxanthine maintained meiotic arrest in denuded oocytes (DO) or cumulus enclosed oocytes (CEO), i.e. as the ability to induce meiotic resumption in vitro. Ovaries are obtained from immature female mice (B6D2-F1, strain C57BL×DBA). At the age of 19, 20 or 21 days the mice are injected subcutaneously with a single dose of 20 IU follicle stimulating hormone (Humegon, Organon, The Netherlands) in saline. Forty-eight hours after follicle stimulating hormone injection mice are killed by cervical dislocation. The ovaries are removed, freed of extraneous tissue and placed in a multidish containing 0.5 ml preparation medium at 37° C. […] At t=0 the number of oocytes with intact germinal vesicles (GV) or germinal vesicle break-down (GVBD) is counted under an inverted microscope with differential interference contrast equipment. […] At the end of the culture period the number of oocytes with GV or GVBD per group is counted. For statistical analysis the percentage germinal vesicle breakdown is calculated for each group in one block. These percentages are subjected to arcsin transformation, and differences between control and test compounds are analyzed by an ANOVA test for a randomized block design.

denuded oocytes (DO) = assay: Oocyte assay, denuded oocytes (DO): overcoming hypoxanthine maintained meiotic arrest; assay type: cell-based, mice (B6D2-F1, strain C57BL×DBA); settings: 22 hours culture, hypoxanthine 4 mM, control value in parentheses
Description: as §1

[2] = test system: cultured cumulus enclosed and naked mouse oocytes; settings: cited from earlier work
meiosis = settings: disclosed in WO 98/28323; cited from earlier work

SMILES | % GVBD CEO assay exp. ([1]; 5 μM) | % GVBD DO assay exp. (denuded oocytes (DO); 5 μM) | melting point [°C] | ability to activate the resumption of meiosis [2] | other results
CC(C)=CC[C@H](O)[C@@H](C)[C@H]1CC=C2C3=C(CC[C@@]21C)[C@@]1(C)CC[C@H](O)C(C)(C)[C@@H]1CC3 [Example 2, (3β,5α,20S,22S )-4,4-Dimethylcholesta-8,14,24-triene-3,22-diol] | 73(2) % | 97(2) % | 106 to 108 | – | –
CC(C)=CCC[C@@H](C)[C@H]1CC[C@H]2C3=C(CC[C@]12C)[C@@]1(C)CC[C@H](O)C(C)(C)[C@@H]1CC3 [(3β,5α,20R)-4,4-dimethylcholesta-8,24-dien-3-ol] | – | – | – | able to activate the resumption of meiosis | –
CC(C)=CCC[C@@H](C)[C@H]1CC=C2C3=C(CC[C@@]21C)[C@@]1(C)CC[C@H](O)C(C)(C)[C@@H]1CC3 [FF-Mas, (3β,5α,20R)-4,4-dimethylcholesta-8,14,24-trien-3-ol] | – | – | – | able to activate the resumption of meiosis | % GVBD CEO assay exp. ([1]; 10 μM): 0(0) %; % GVBD DO assay exp. (denuded oocytes (DO); 10 μM): 84(7) %
CC(C)CC[C@@H](O)[C@@H](C)[C@H]1CC[C@H]2[C@@H]3CC=C4C[C@@H](O)CC[C@]4(C)[C@H]3CC[C@]12C [22R-hydroxycholesterol] | – | – | – | – | agonist/antagonist of meiosis activating substance (meiosis): antagonist
CC(C)CC[C@H](O)[C@@H](C)[C@H]1CC=C2C3=C(CC[C@@]21C)[C@@]1(C)CC[C@H](O)C(C)(C)[C@@H]1CC3 [Example 1, (3β,5α,20S ,22S)-4,4-Dimethylcholesta-8,14-diene-3,22-diol] | 6(3) % | 85(0) % | 142 to 143 | – | –
